Laboratory results taken from patent publication US20090253709A1 (NATIONAL DEFENSE MEDICAL CENTER, priority 2008, published 2009).
Read-outs that look alike come from different tables or passages of the source.

Columns and labels:
MTT assay in H1299 cells = format: cell-based; conditions: human, H1299 cells (H1299/PhTERT-driven SEAP reporter system), H1299, read-out: MTT (Inhibition μM ± SD); for viability at 24 h, 1 µM: compound concentration 1 μM; for viability at 24 h, 10 µM: compound concentration 10 μM; for viability at 24 h, 100 µM: compound concentration 100 μM
How it was run: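 H1299 cells, 2×10^3 per well, treated with drug 48 h. MTT (5 mg/ml stock) added for 4 h at 37° C, then SDS/DMF lysis overnight; absorbance at 570 nm gives viability, used alongside SEAP reporter readout to correct for cell number.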

hTERT expression = assay: SEAP assay in hTERT-BJ1-PTERT(3.4)-SEAP cells; format: cell-based; conditions: Homo sapiens, read-out: SEAP (Inhibition μM ± SD)
Experimental: A total of 2×10^3 hTERT-BJ1-PTERT(3.4)-SEAP cells were seeded in the 96-well cell culture plate, and incubated with DMEM (GIBCO®)/glucose mixture and Medium 199 (GIBCO®)/10% FBS/1 mM sodium pyruvate (GIBCO®)/4 mM L-glutamine (GIBCO®) mixture at a ratio of 4:1 at 37° C. for 24 hours. When the cells were attached in the bottom of the well, the seriously-diluted compounds with different concentrations ([…]) were treated with the cells for 48 hours, and the PTERT(3.4)-SEAP cells without drug treatment were being the control. After 48 hours of drug treatment, the cultured medium were collected for performing the analysis of SEAP activity. The cells were washed with 1×PBS once immediately, and the MTT assay was performed to compare the compounds with the relative toxicity or the influence to the proliferation and activity.
The cellular medium after the cellular incubation was transferred into the eppondorf tube, and the activity of endogeneous alkaline phosphatase was inactivated at 65° C. for 10 minutes. After centrification, the mixture was obtained by mixing 50 μl of the supernatant with the equal volume of the SEAP buffer. The mixture and the substrate (120 mM of p-nitrophenylphosphate) were preheated at 37° C. for 10 minutes respectively, and the mixture and the substrate were mixed at a ratio of 1:10 and reacted at 37° C. The absorbance of visible light at 405 nm was determined at the appropriate time intervals, and the enzymatic activity of SEAP was represented by the speed of the increasing absorbance at 405 nm.

telomerase = assay: Telomeric repeat amplification protocol (TRAP); format: biochemical; conditions: compounds at 100, 10 and 1 μM; gel electrophoresis
A498 = assay: In vitro cytotoxicity, Development Therapeutics Program; format: cell-based; conditions: A498, renal cancer; 1.0×10^−5 M
Source text: (§1) From the in vitro experiments of the Development Therapeutics Program of the Cancer Research Institute, the United States, it was known that the synthetic heterocyclic anthraquinone derivatives of the present invention have different inhibition levels to the different cancer cell lines under the concentration of 1.0×10^−5 M. Please refer to Table 2, which is the result of in vitro cytotoxicity of 2,7-disubstituted anthraquinone derivatives of the present invention.

HL-60(TB) = assay: as above; format: cell-based; conditions: leukemia, 1.0×10^−5 M
Source text: as §1

HOP-62 = assay: as above; format: cell-based; conditions: HOP-62, non-small cell lung cancer; 1.0×10^−5 M
Source text: as §1

KM12 = assay: as above; format: cell-based; conditions: KM12, colon cancer; 1.0×10^−5 M
Source text: as §1

MCF7 = assay: as above; format: cell-based; conditions: MCF7, breast cancer; 1.0×10^−5 M
Source text: as §1

NCl-H322M = assay: as above; format: cell-based; conditions: non-small cell lung cancer, 1.0×10^−5 M
Source text: as §1

SK-MEL-28 = assay: as above; format: cell-based; conditions: SK-MEL-28, melanoma; 1.0×10^−5 M
Source text: as §1

TK-10 = assay: as above; format: cell-based; conditions: TK-10, renal cancer; 1.0×10^−5 M
Source text: as §1

UO-31 = assay: as above; format: cell-based; conditions: UO-31, renal cancer; 1.0×10^−5 M
Source text: as §1

SMILES	viability at 24 h, 1 µM (MTT assay in H1299 cells) [%]	viability at 24 h, 10 µM (MTT assay in H1299 cells) [%]	viability at 24 h, 100 µM (MTT assay in H1299 cells) [%]	activity at 1 µM (hTERT expression) [%]	activity at 10 µM (hTERT expression) [%]	activity at 100 µM (hTERT expression) [%]	telomerase inhibition effect in TRAP assay (telomerase)	Cellular growth rate (%) (A498)	Cellular growth rate (%) (HL-60(TB))	Cellular growth rate (%) (HOP-62)	Cellular growth rate (%) (KM12)	Cellular growth rate (%) (MCF7)	Cellular growth rate (%) (NCl-H322M)	Cellular growth rate (%) (SK-MEL-28)	Cellular growth rate (%) (TK-10)	Cellular growth rate (%) (UO-31)	activity at 1 µM (hTERT expression; BJ1, compound concentration 1 μM) [%]	activity at 10 µM (hTERT expression; BJ1, compound concentration 10 μM) [%]	activity at 100 µM (hTERT expression; BJ1, compound concentration 100 μM) [%]
CN(C)CC(=O)Nc1ccc2c(c1)C(=O)c1cc(NC(=O)CN(C)C)ccc1C2=O [Compound 8, 2,7-Bis[2-(dimethylamino)acetamido]anthraquinone]	92 ± 13	55 ± 9	15 ± 12	96 ± 1	44 ± 5	3 ± 13	telomerase inhibition effect	−6.39	−64.97	28.97	66.95	7.92	32.42	32.11	73.47	−82.55			
CCN(CC)CCC(=O)Nc1ccc2c(c1)C(=O)c1cc(NC(=O)CCN(CC)CC)ccc1C2=O [Compound 16, 2,7-Bis[3-(diethylamino)propionamido]anthraquinone]	106 ± 15	41 ± 20	1 ± 1				telomerase inhibition effect	−38.76	14.01	11.65	21.82	9.34	44.75	2.56	17.16	−31.53	84 ± 5	49 ± 3	37 ± 5
CC(=O)Nc1ccc2c(c1)C(=O)c1cc(NC(C)=O)ccc1C2=O [Compound 26, 2,7-Bis(acetamido)anthraquinone]	117 ± 15	83 ± 13	55 ± 11	123 ± 5	117 ± 3	117 ± 5	telomerase inhibition effect	115.60	38.74	110.60	105.94	96.90	97.50	117.60	118.38	96.42			
